Target: T1, S1P-1 receptor (Homo sapiens, UniProt P21453)
T1 construct: expressed in transfected cells; host or cells: HEK 293 T cells (membrane preparation)
Assay: [33P]sphingosine 1-phosphate binding assay on membranes of transfected HEK 293 T cells
Conditions: [33P]S1P binding, receptor taken from context of b294
Description: In certain embodiments, the compounds of the invention selective for the S1P-1 receptor as compared to one or more of the other S1P receptors. For example, one set of compounds includes compounds which are selective for the S1P-1 receptor relative to the S1P-3 receptor. […] The EC50 of a compound is determined using the ^35S-GTPγS binding assay, as described in WO 03/061567, the entire contents of which are incorporated herein by reference. […] The IC50 of a compound is determined using the [^33P]sphingosine 1-phosphate binding assay, as described in Davis, M. D. et al., Sphingosine 1-Phosphate Analogs as Receptor Antagonists. J. Biol. Chem. (2005) 280:9833-9841, the entire contents of which are incorporated herein by this reference.
The terms “agonist” or “S1P-1 receptor agonist” as used herein include the compounds described herein which bind to and/or agonize the S1P-1 receptor. […] The compounds' IC50 for the S1P1 receptor can be measured using the binding assays described in Example 13 or those described in WO 03/061567.
The ability of several of the compounds described herein to bind to the S1P-1 or S1P-3 receptor was also tested as follows.
For the membrane preparation, plasmid DNA was transfected into HEK 293 T cells using the FuGENE 6 transfection protocol (publicly available from Roche). […] Protein concentration was determined spectroscopically by Bradford protein assay. […]

T1 sequence (P21453 whole entry): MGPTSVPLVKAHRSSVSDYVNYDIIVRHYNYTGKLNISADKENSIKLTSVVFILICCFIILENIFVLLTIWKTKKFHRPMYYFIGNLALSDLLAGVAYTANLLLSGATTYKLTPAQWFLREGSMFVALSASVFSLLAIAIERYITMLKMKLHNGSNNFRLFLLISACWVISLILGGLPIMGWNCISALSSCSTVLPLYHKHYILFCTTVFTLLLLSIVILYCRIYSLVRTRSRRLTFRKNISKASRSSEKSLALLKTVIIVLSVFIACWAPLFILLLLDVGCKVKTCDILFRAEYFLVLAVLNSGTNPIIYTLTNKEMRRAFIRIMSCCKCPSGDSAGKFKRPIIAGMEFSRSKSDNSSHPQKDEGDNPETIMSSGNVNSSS

- IC50: 2.17 nM
Compound: CCCCCOCCOc1ccc(-c2nnc([C@@](C)(N)CO)s2)cc1C(F)(F)F

From patent US20080070866A1, “Chemical compounds” (Praecis Pharmaceuticals Incorporated, priority 2006, published 2008)
